Data taken from patent US12226405B2, “Compounds and compositions for inhibiting the activity of HIF2-alpha and their methods of use” (Novartis AG, priority 2020, dated 2025).

Tests used:
[1] = system: HIF2α-dependent transcription in 786-O-HRE-Luc cells; assay: In vitro cellular hypoxia response element (HRE) reporter gene assay (RGA) for HIF2α; format: cell-based, human; conditions: Homo sapiens, 24 hours incubation
Description: (§1) Stock solutions of compounds were prepared at a concentration of 10 mM in DMSO and stored at 4° C. Where necessary to afford a full dose-response curve, the stock solutions were pre-diluted in DMSO to 1,000-fold the desired reduced start concentration. On the day after cell seeding, eleven 2-fold serial dilutions of each compound were dispensed directly into the cell assay plates using either HP 300D non-contact Digital Dispenser (TECAN) or a ATS100 acoustic dispenser (EDC Biosystems).
The ability of compounds to inhibit HIF2α- and HIF1α-dependent transcription was assessed in 786-O-HRE-Luc and RCC4-HRE-Luc cells, respectively. The putative unselective inhibition of firefly luciferase activity or expression was assessed in 786-O-UB6-Luc and RCC4-UB6-Luc cells, respectively. The reporter lines were generated as follows: 786-O (RRID: CVCL_1051) and RCC4 (RRID: CVCL_0498) clear cell renal carcinoma cell lines were obtained from ATCC and Celeste Simon (University of Pennsylvania), respectively. Either cell line was transduced with a lentiviral vector in which the expression of a PEST-destabilized version of firefly-luciferase is under the control of either a minimal promoter coupled to four copies of a minimal hypoxia response element (HRE) sequence (pLenti 4×HRE Luc PEST), or a promoter from the house-keeping UBC gene (pLenti UB6 Luc PEST). In short, for the construction of the pLenti 4×HRE Luc PEST vector, 4×HRE DNA oligonucleotides were synthesized, annealed and cloned into pGL4.27 plasmid vector (Promega) predigested with NheI and HindIII restriction enzymes. The sequence of the two DNA oligonucleotides was as follows: NheI 4×HRE HindIII FWD: […] (SEQ ID NO: 8); NheI 4×HRE HindIII REV […] (SEQ ID NO: 9). The 4×HRE Luc PEST fragment was then PCRed from this plasmid with restriction enzyme sites NheI and XhoI at the two ends, and inserted into pLenti6/BLOCK iT DEST (Thermo Fisher Scientific) predigested with NheI and XhoI restriction enzymes. For the construction of the pLenti UB6 Luc PEST vector, the Luc PEST sequence was PCRed from pGL4.27 (Promega) using EcoRV and XhoI restriction enzymes at the two ends, and inserted into pLenti6/UBC/V5/DEST (Thermo Fisher Scientific) predigested with the same enzymes. 786-O and RCC4 cells (300,000 per well of a 6 well plate) were infected in the presence of 10 μg/ml polybrene with lentivirus harvested two days after transfection of HEK293-FT (ThermoFisher Scientific #R70007) cells (80% confluent in a 100 cm^2 dish) with a mix of 1.5 ml OptiMEM (ThermoFisher Scientific #31985062) containing 3 μg of the desired plasmids and 9 μl of ViralPower Packaging mix (ThermoFisher Scientific #K497500), and 1.5 ml OptiMEM containing 36 μl Lipofectamine 2000 (ThermoFisher Scientific #11668019). Successfully infected cells were selected using blasticidin (Gibco #A11139-03) at a final concentration of 5 μg/ml. The resulting stable cell lines were named 786-O pLenti 4×HRE Luc PEST (short: 786-O-HRE-Luc), 786-O pLenti UB6 Luc PEST (short: 786-O-UB6-Luc), RCC4 pLenti 4×HRE Luc PEST (short: RCC4-HRE-Luc) and RCC4 pLenti UB6 Luc PEST (short: RCC4-UB6-Luc). All 4 cell lines were maintained in growth medium composed of DMEM (GIBCO #11995-065), 2 mM L-Glutamine (BioConcept #5-10K50-H), 10% fetal calf serum (Gibco #A31608-01), 1× Penicillin/Streptomycin (BioConcept #4-01F00-H), 1 mM Sodium pyruvate (BioConcept #5-60F00-H) and 5 μg/ml blasticidin (Gibco #A11139-03) at 37° C. in a humidified 5% CO2 incubator.
For the reporter gene assay, the individual cell lines were seeded at 2,500 cells/20 μL/well into white-wall, clear-bottom 384-well plates (Greiner #781098) and incubated over night at 37° C. prior to addition of serial compound dilutions as described above. […]

[2] = biological target: HIF2α PAS-B domain (236-350, biotinylated on the N-terminus) (Homo sapiens (Human), UniProt Q99814)
Sequence of HIF2α PAS-B domain (236-350, biotinylated on the N-terminus) (Q99814 236-350): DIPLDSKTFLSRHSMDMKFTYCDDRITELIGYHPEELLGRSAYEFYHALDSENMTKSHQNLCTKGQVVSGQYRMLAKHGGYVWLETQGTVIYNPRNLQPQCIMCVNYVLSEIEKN
Description: The assay buffer contained 50 mM Tris-HCl pH7 (Sigma), 20 mM NaCl (Fluka), 0.02% BSA (Sigma), 0.005% Triton X-100 (Pierce) and 1 mM DTT (Fluka). After a 30 min incubation period, 5 μL Streptavidin PVT SPA Beads (Perkin Elmer) at 1.2 mg/mL, diluted in the buffer, were added.

[3] = system: HIF2α-regulated expression of the endogenous target gene hEGLN3 in 786-O cells; assay: Cellular iScript assay for HIF2α (quantitative RT-PCR of hEGLN3); format: cell-based, human; conditions: Homo sapiens, 786-0, 48 hours incubation
Description: as §1
Compound-mediated modulation of the HIF2α-regulated expression of the endogenous target gene hEGLN3 (OMIM: 606426), as well as beta-actin (OMIM: 102630) as a house-keeping control, was assess in 786-O cells (RRID CVCL_1051) using a quantitative RT-PCR approach. In short, 786-O cells were maintained in growth medium composed of DMEM (GIBCO #11995-065), 2 mM L-Glutamine (BioConcept #5-10K50-H), 1× Penicillin/Streptomycin (BioConcept #4-01F00-H), 10% fetal calf serum (Gibco #A31608-01), 1 mM Sodium pyruvate (BioConcept #5-60F00-H). Cells were seeded at 1,000 cells/20 μL/well into white-wall, clear-bottom 384-well plates (Greiner #781098) and incubated over night at 37° C. prior to addition of serial compound dilutions as described above. Following incubation for 48 hours at 37° C., medium supernatant was discarded and the plate blotted dry by inverting on a tissue. The same procedure was repeated following one wash with 20 μL phosphate-buffered saline. Following addition of 25 μL/well iScript sample preparation reagent (BioRad #170-8899) using a 16-channel Matrix pipette, the plate was incubated for 2 min at room temperature. 20 μL lysate supernatant was then removed and transferred to a new 384 well plate (Costar #3656) and diluted 1:3 by adding 5 μL of the lysate to 10 μL H2O using a Bravo liquid handler (Agilent). 2 μL of the diluted lysate was added to the 8 μL of a mastermix containing 5 μL iTaq Universal Probes One-step kit (BioRad #172-5141), 0.25 μL iScript reverse transcription supermix (BioRad #1708840), 0.25 μL 40×HEX-ZEN-labeled TaqMan probe for beta-actin (IDT #Hs.PT.39a.22214847: Probe 5′ HEX-TCA TCC ATG/ZEN/GTG AGC TGG CGG-3′ (SEQ ID NO: 2) Iowa Black FQ, Primer 1: ACA GAG CCT CGC CTT TG (SEQ ID NO: 3); Primer 2: CCT TGC ACA TGC CGG (SEQ ID NO: 4) AG), 0.25 μL, 40×FAM-ZEN-labeled TaqMan probe for hEGLN3 (IDT #Hs.PT.58.189348: Probe 5′ 6-FAM-TTT GGC TTC/ZEN/TGC CCT TTC TTC AGC-3′ (SEQ ID NO: 5) Iowa Black FQ, Primer 1: CACGGTCAGTCTTCAGTGAG (SEQ ID NO: 6); Primer 2: CGCAACCAGATATGCTATGACT (SEQ ID NO: 7)), 2.25 μL RNase-free water, prelaid in a 384 well plate (ABI #4309849) using a 16-channel Matrix pipette. The plate was sealed with a PCR-compatible optical film (MicroAmp, ABI #4360954) and centrifuged (1500 rpm, 5 min, +4° C.) to collect all reagents in the bottom of the well and to remove bubbles. The plate content was amplified on a 7900HT thermal cycler (ABI) using the following conditions: Step 1: 50° C. for 10 min, Step 2: 95° C. for 3 min, Step 3 (40×): 95° C. for 15 s, 60° C. for 1 min. ROX (reaction volume 10 μL) was used as a passive reference. Data were collected with manual adjustment of the Ct threshold (beta-actin: 0.046, hEGLN3: 0.06) and were analyzed using the 2^(−ΔΔCt) method. Thus, for each sample, the following values were calculated: 2^(−Ct)a for beta-actin, 2^(−Ct)e for EGLN3, and 2^(−ΔCt) calculated as (2^(−Ct)e/2^(−Ct)a). The mean 2^(−ΔCt) as well as the corresponding standard deviation was calculated for each sample. Taking the DMSO-treated sample as a reference, the 2^(−ΔΔCt) for each sample was calculated as follows: 2^(−ΔΔCt)=2^(−ΔCt)sample/(2^(−ΔCt)DMSO). After calculating differential expression as 2^(−ΔΔCt) for each sample, it was then expressed as a percentage (×100) to obtain a dose-response curve in % of DMSO control and IC50s were calculated using a four-parametric fit model.

`N#CC1=CN2C[C@@]3(CCc4c3ccc(Br)c4F)N=C2C(OC(F)F)=C1` [Example 4, (S)-5′-bromo-8-(difluoromethoxy)-4′-fluoro-2′,3′-dihydro-3H-spiro[imidazo[1,2-a]pyridine-2,1′-indene]-6-carbonitrile] was tested, and the IC50 [1] was 699 nM, the IC50 [2] was 9 nM and the IC50 [3] was 155 nM.

In the case of `FCOC1=CC(C(F)(F)F)=CN2C[C@@]3(CCc4c3ccc(Br)c4F)N=C12` [Example 5, (5)-5′-bromo-4′-fluoro-8-(fluoromethoxy)-6-(trifluoromethyl)-2′,3′-dihydro-3H-spiro[imidazo[1,2-a]pyridine-2,1′-indene]], the IC50 [1] is reported as 328 nM, the IC50 [2] is reported as 9 nM and the IC50 [3] is reported as 138 nM.

`Fc1c(Br)ccc2c1CCC[C@@]21CN2C=C(C(F)(F)F)C=C(OC(F)F)C2=N1` [Example 7, (S)-6′-bromo-8-(difluoromethoxy)-5′-fluoro-6-(trifluoromethyl)-3′,4′-dihydro-2′H,3H-spiro[imidazo[1,2-a]pyridine-2,1′-naphthalene]] was tested, and the IC50 [1] was 82 nM, the IC50 [2] was ≤ 3 nM and the IC50 [3] was 32 nM.

Work on `O=C1CC[C@@]2(CN3C=C(C(F)(F)F)C=C(OC(F)F)C3=N2)c2ccc(Br)c(F)c21` [Example 8, (S)-6′-bromo-8-(difluoromethoxy)-5′-fluoro-6-(trifluoromethyl)-2′H,3H-spiro[imidazo[1,2-a]pyridine-2,1′-naphthalen]-4′(3′H)-one] yielded an IC50 [1] of 271 nM, an IC50 [2] of 14 nM and an IC50 [3] of 198 nM.

Work on `O=C1c2c(ccc(Br)c2F)[C@@]2(C[C@H]1F)CN1C=C(C(F)(F)F)C=C(OC(F)F)C1=N2` [Example 9, (1′S)-6′-bromo-8-(difluoromethoxy)-3′,5′-difluoro-6-(trifluoromethyl)-2′H,3H-spiro[imidazo[1,2-a]pyridine-2,1′-naphthalen]-4′(3H′)-one] yielded an IC50 [1] of 2210 nM, an IC50 [2] of 15 nM and an IC50 [3] of 173 nM.

For `O[C@H]1c2c(ccc(Br)c2F)[C@@]2(C[C@H]1F)CN1C=C(C(F)(F)F)C=C(OC(F)F)C1=N2` [Example 10, (1′S,3′R,4'S)-6′-bromo-8-(difluoromethoxy)-3′,5′-difluoro-6-(trifluoromethyl)-3′,4′-dihydro-2′H,3H-spiro[imidazo[1,2-a]pyridine-2,1′-naphthalen]-4′-ol], the IC50 [1] was 207 nM, the IC50 [2] was 21 nM and the IC50 [3] was 77 nM.

`FC(F)OC1=CC(C(F)(F)F)=CN2C[C@@]3(CCCc4cc(Br)ccc43)N=C12` [Example 11, (S)-6′-bromo-8-(difluoromethoxy)-6-(trifluoromethyl)-3′,4′-dihydro-2′H,3H-spiro[imidazo[1,2-a]pyridine-2,1′-naphthalene]] was tested, and the IC50 [1] was 89 nM, the IC50 [2] was ≤ 3 nM and the IC50 [3] was 33 nM.

With `FC(F)OC1=CC(C(F)(F)F)=CN2C[C@@]3(CCCc4ccccc43)N=C12` [Example 12, (S)-8-(difluoromethoxy)-6-(trifluoromethyl)-3′,4′-dihydro-2′H,3H-spiro[imidazo[1,2-a]pyridine-2,1′-naphthalene]] the IC50 [1] was 250 nM, the IC50 [2] was 8 nM and the IC50 [3] was 59 nM.

`N#CC1=CN2C[C@@]3(CCCc4c3ccc(Br)c4F)N=C2C(OC(F)F)=C1` [Example 13, (S)-6′-bromo-8-(difluoromethoxy)-5′-fluoro-3′,4′-dihydro-2′H,3H-spiro[imidazo[1,2-a]pyridine-2,1′-naphthalene]-6-carbonitrile] was tested, and the IC50 [1] was 113 nM, the IC50 [2] was 5 nM and the IC50 [3] was 42 nM.

For `Fc1c(Br)ccc2c1C(F)(F)CC[C@@]21CN2C=C(C(F)(F)F)C=C(OC(F)F)C2=N1` [Example 14, (S)-6′-bromo-8-(difluoromethoxy)-4′,4′,5′-trifluoro-6-(trifluoromethyl)-3′,4′-dihydro-2′H,3H-spiro[imidazo[1,2-a]pyridine-2,1′-naphthalene]], the IC50 [1] was 146 nM, the IC50 [2] was 9 nM and the IC50 [3] was 57 nM.

In the case of `N#Cc1ccc2c(c1F)C(F)(F)CC[C@@]21CN2C=C(C(F)(F)F)C=C(OC(F)F)C2=N1` [Example 15, (S)-8-(difluoromethoxy)-4′,4′,5′-trifluoro-6-(trifluoromethyl)-3′,4′-dihydro-2′H,3H-spiro[imidazo[1,2-a]pyridine-2,1′-naphthalene]-6′-carbonitrile], the IC50 [1] is reported as 392 nM, the IC50 [2] is reported as 16 nM and the IC50 [3] is reported as 128 nM.
